Reference: ChEMBL document CHEMBL2406918, “Controlling persister cells of Pseudomonas aeruginosa PDO300 by (Z)-4-bromo-5-(bromomethylene)-3-methylfuran-2(5H)-one” (2013)
Active and inactive are the calls of the source. No cut-off for these calls is given here.

Tests used:
Escherichia coli = test: Antibacterial activity against Escherichia coli RP437 assessed as effect on persister cells at pH > 7; assay type: functional, organism-based
Pseudomonas aeruginosa [1] = test: Antibacterial activity against Pseudomonas aeruginosa PDO300 assessed as effect on total number of suspended planktonic cells at 60 ug/ml after 18 hrs by drop plate method relative to control; assay type: functional, organism-based
Pseudomonas aeruginosa [2] = test: Antibacterial activity against Pseudomonas aeruginosa PDO300 assessed as growth inhibition at 5 to 30 ug/mL after 12 hrs; assay type: functional, organism-based
Pseudomonas aeruginosa [3] = test: Antibacterial activity against Pseudomonas aeruginosa PDO300 assessed as viable persister cells at 30 ug/ml after 24 hrs by drop plate method; assay type: functional, organism-based
Pseudomonas aeruginosa [4] = test: Antibacterial activity against Pseudomonas aeruginosa PDO300 assessed as viable biofilm cells at 30 ug/ml after 24 hrs by drop plate method (reference value: 0.0005 +/- 0.0008%); assay type: functional
Pseudomonas aeruginosa [5] = test: Antibacterial activity against Pseudomonas aeruginosa PDO300 assessed as cell death in planktonic phase at 30 ug/ml after 24 hrs by drop plate method; assay type: functional, organism-based
Pseudomonas aeruginosa [6] = test: Antibacterial activity against Pseudomonas aeruginosa PDO300 assessed as persister cell death in viable biofilm at 5 to 30 ug/mL after 24 hrs by drop plate method; assay type: functional, organism-based
Pseudomonas aeruginosa [7] = test: Antibacterial activity against Pseudomonas aeruginosa PDO300 assessed as reduction in viable biofilm cells after 24 hrs by drop plate method; assay type: functional, organism-based
Pseudomonas aeruginosa [8] = test: Antibacterial activity against Pseudomonas aeruginosa PDO300 assessed as reduction in viable persister cells in planktonic population of biofilm at 60 ug/ml after 18 hrs by drop plate method relative to control; assay type: functional
Pseudomonas aeruginosa [9] = test: Antibacterial activity against Pseudomonas aeruginosa PDO300 assessed as reduction in viable persister cells in planktonic population of biofilm after 18 hrs by drop plate method; assay type: functional, organism-based
Pseudomonas aeruginosa [10] = test: Antibacterial activity against Pseudomonas aeruginosa PDO300 assessed as reduction in viable persister cells in biofilm at 20 to 60 ug/ml after 18 hrs by drop plate method relative to control; assay type: functional
Pseudomonas aeruginosa [11] = test: Antibacterial activity against Pseudomonas aeruginosa PDO300 assessed as reduction in biofilm formation at 60 ug/ml after 18 hrs by drop plate method relative to control; assay type: functional; parameters: scale not given: the % may be the effect or the level left
Pseudomonas aeruginosa [12] = test: Antibacterial activity against Pseudomonas aeruginosa PDO300 assessed as reduction in planktonic cells in biofilm after 18 hrs by drop plate method; assay type: functional, organism-based
Pseudomonas aeruginosa [13] = test: Antibacterial activity against Pseudomonas aeruginosa PDO300 assessed as reduction in persister cells in biofilm after 18 hrs by drop plate method; assay type: functional, organism-based
Pseudomonas aeruginosa [14] = test: Antibacterial activity against Pseudomonas aeruginosa PDO300 assessed as reduction in biofilm formation after 18 hrs by drop plate method; assay type: functional, organism-based
Pseudomonas aeruginosa [15] = test: Bactericidal activity against Pseudomonas aeruginosa PDO300 persister cells at 50 ug/ml after 2 hrs by drop plate method; assay type: functional, organism-based
Pseudomonas aeruginosa [16] = test: Bactericidal activity against Pseudomonas aeruginosa PDO300 persister cells at 5 ug/ml after 2 hrs by drop plate method; assay type: functional
Pseudomonas aeruginosa [17] = test: Bactericidal activity against Pseudomonas aeruginosa PDO300 persister cells at 5 to 50 ug/ml after 2 hrs by drop plate method; assay type: functional, organism-based
Pseudomonas aeruginosa [18] = test: Antibacterial activity against Pseudomonas aeruginosa PDO300 assessed as reduction in persistence after 12 hrs by drop plate method; assay type: functional, organism-based
Pseudomonas aeruginosa [19] = test: Antibacterial activity against Pseudomonas aeruginosa PDO300 assessed as reduction in persistence at 30 ug/ml after 12 hrs by drop plate method relative to control; assay type: functional; parameters: scale not given: the % may be the effect or the level left
Pseudomonas aeruginosa [20] = test: Antibacterial activity against Pseudomonas aeruginosa PDO300 assessed as reduction in persistence up to 30 ug/ml after 5 hrs by drop plate method; assay type: functional, organism-based
Pseudomonas aeruginosa [21] = test: Antibacterial activity against Pseudomonas aeruginosa PDO300 assessed as cell viability up to 30 ug/ml after 5 hrs by drop plate method; assay type: functional, organism-based

Compound: CC1=C(Br)/C(=C/Br)OC1=O
- Activity (Escherichia coli): Active
- Activity (Pseudomonas aeruginosa [1]): inactive
- growth inhibition (GI) (Pseudomonas aeruginosa [2]): inactive
- Activity (Pseudomonas aeruginosa [3]): Active
- Activity (Pseudomonas aeruginosa [4]): 0.01%
- Activity (Pseudomonas aeruginosa [5]): Active
- Activity (Pseudomonas aeruginosa [6]): Active
- Activity (Pseudomonas aeruginosa [7]): Dose-dependent effect
- Activity (Pseudomonas aeruginosa [8]): 96.5%
- Activity (Pseudomonas aeruginosa [9]): Dose-dependent effect
- Activity (Pseudomonas aeruginosa [10]): 98.3%
- Activity (Pseudomonas aeruginosa [11]): 91.6%
- Activity (Pseudomonas aeruginosa [12]): inactive
- Activity (Pseudomonas aeruginosa [13]): Dose-dependent effect
- Activity (Pseudomonas aeruginosa [14]): Dose-dependent effect
- Activity (Pseudomonas aeruginosa [15]): Active
- Activity (Pseudomonas aeruginosa [16]): 80.9%
- Activity (Pseudomonas aeruginosa [17]): Active
- Activity (Pseudomonas aeruginosa [18]): Dose-dependent effect
- Activity (Pseudomonas aeruginosa [19]): 88.5%
- Activity (Pseudomonas aeruginosa [20]): inactive
- Activity (Pseudomonas aeruginosa [21]): inactive
